Measured values as given in patent US20260193254A1, “2-OXOQUINAZOLINE CRYSTALLINE FORMS” (IDEAYA Biosciences, Inc., priority 2022, published 2026).
In brackets after ≈: the same amount, converted by molar mass. Marks after values point to notes of the source that are not given here.

Experiments:
Assay type in all cases: physicochemical
[1] = Crystallization at room temperature by fast evaporation; details: nitrogen flow
Source text: The samples are filtered by 0.45 μm nylon filter. Obtained solutions were fast evaporated under nitrogen flow. Solid residues were examined for their polymorphic form.

[2] = Intrinsic dissolution rate (IDR) evaluation in FaSSIF; details: FaSSIF at 37° C.
[3] = Bulk stability of crystalline forms; details: for Purity, Bulk (HPLC): Solid state
Source text: (§1) Solids obtained after bulk stability study were characterized by XRPD and HPLC.

[4] = Temperature cycling experiments; details: TC8 Acetone/water = 1/1 (v/v) (62 mg/mL), 5-50° C., 6 cycles
Procedure: After 6 cycles, precipitates were collected at 5° C. by centrifugation. The solid part (wet cake) was investigated by XRPD. When differences were observed, additional investigations were performed (e.g. DSC, TGA etc.).

[5] = Behavior under compression; details: 2 Mpa/2 min, hydraulic press
Procedure: XRPD characterization was performed to investigate polymorphic behavior under compression.

[6] = Equilibrium solubility in FeSSIF and FaSSIF; details: 24 hours; for Solubility: target concentration 1 mg/mL, HPLC method 1 or 2 (footnote); for impurity in solubility sample: no unit printed for impurity (column head mg/mL)
Procedure: (§2) Solid part and liquid part were separated by filtration. Solubility was measured by HPLC. Solid part (wet cake) was investigated by XRPD.

[7] = Bulk stability of crystalline forms; set-up: key: Color A: All No change of color; details: Solid state
Source text: as §1

[8] = Water activity study; details: protected by kapton film
Source text: These solvent mixtures were saturated with the compound of Formula (I) before addition of the polymorph seeds. […] These solvent mixtures were saturated with the compound of Formula (I) before addition of the polymorph seeds. Obtained suspension was filtered. Solid part (wet cake) was investigated by XRPD.

[9] = Equilibrium solubility in SGF (pH 2.0), 0.1 N HCl (pH 1.2) and phosphate buffer (pH 8.0); details: 24 hours; for solubility at 24 h: 37 °C, thermodynamic from solid, target concentration 1 mg/mL, HPLC method 2
Procedure: as §2

[10] = 25° C./92% RH, open container, 1 week
[11] = 25° C./92% RH, open container, 2 weeks
[12] = 40° C./75% RH, open container, 1 week
[13] = 40° C./75% RH, open container, 2 weeks
[14] = 60° C., tight container, 1 week
[15] = 60° C., tight container, 2 weeks
[16] = pH 8 (phosphate buffer), 37° C.

With `Nc1nc(=O)n(-c2ccccc2Cl)c2nc(C(F)(F)F)ccc12` [solid state Form V, 4-Amino-1-(2-chlorophenyl)-7-(trifluoromethyl)pyrido[2,3-d]pyrimidin-2(1H)-one] the “Crystalline Form formed by fast evaporation” value ([1]; FE1 Methanol (14 mg/mL)) was “Form B”, the “Crystalline Form formed by fast evaporation” value ([1]; FE2 Ethanol (7 mg/mL)) was “Solid state Form V” and the “Crystalline Form formed by fast evaporation” value ([1]; FE3 2-Propanol (4 mg/mL)) was “Solid state Form V”. For the same compound, the “Crystalline Form formed by fast evaporation” value ([1]; FE6 Acetone (3 mg/mL)) was “Form G”, the “Crystalline Form formed by fast evaporation” value ([1]; FE7 Methyl ethyl ketone (3 mg/mL)) was “Form G” and the “Crystalline Form formed by fast evaporation” value ([1]; FE9 Tetrahydrofuran (4 mg/mL)) was “Form K”. For the same compound, the “Crystalline Form formed by fast evaporation” value ([1]; FE10 Acetonitrile (3 mg/mL)) was “Solid state Form V”, the “Crystalline Form formed by fast evaporation” value ([1]; FE12 Methanol/Ethyl acetate = 1/1 (v/v) (5 mg/mL)) was “Solid state Form V” and the “Crystalline Form formed by fast evaporation” value ([1]; FE13 Methanol/Acetonitrile = 1/1 (v/v) (5 mg/mL)) was “Solid state Form V”. The “Crystalline Form formed by fast evaporation” value ([1]; FE14 Ethanol/t-Butyl methyl ether = 1/1 (v/v) (5 mg/mL)) was “Solid state Form V”, the “Crystalline Form formed by fast evaporation” value ([1]; FE15 Ethanol/Dichloromethane = 1/1 (v/v) (5 mg/mL)) was “Solid state Form V” and the “XRPD after IDR” value ([2]; disc surface after 120 min) was “No form change”. For the same compound, the “Concentration detected during IDR test (Comments)” value ([2]; for Form V and Form A remains same during the whole process, LOQ for Form T and amorphous form) was “(0.006 mg/mL)”, the “Purity, Bulk (HPLC)” value [3, 10] was 98.9% and the “Purity, Bulk (HPLC)” value [3, 11] was 98.9%. For the same compound, the “Purity, Bulk (HPLC)” value [3, 12] was 98.9%, the “Purity, Bulk (HPLC)” value [3, 13] was 98.7% and the “Purity, Bulk (HPLC)” value [3, 14] was 98.8%. The “Purity, Bulk (HPLC)” value [3, 15] was 98.9%, the Initial purity ([3]; before stress, HPLC) was 98.9% and the “chemical stability and physical stability (bulk stability)” value ([3]; stressed under 25° C./92 RH, 40% C/75% RH and 60° C., XRPD and HPLC) was “good chemical stability and physical stability”. The “Crystalline Form formed by temperature cycling” value [4] was “Form G”, the XRPD after compression [5] was “No form change” and the “final pH” value ([6]; FaSSIF, pH 6.5, 37° C.) was 6.5. The Solubility ([6]; FaSSIF, pH 6.5, 37° C.) was 100 µg/mL (≈ 294 µM), the “impurity in solubility sample” value ([6]; FaSSIF, pH 6.5, 37° C.) was “no impurity” and the “final pH” value ([6]; FeSSIF, pH 5.0, 37° C.) was 5.0. For the same compound, the Solubility ([6]; FeSSIF, pH 5.0, 37° C.) was 260 µg/mL (≈ 763 µM), the “impurity in solubility sample” value ([6]; FeSSIF, pH 5.0, 37° C.) was “no impurity” and the Color [7, 10] was “A”. The Color [7, 11] was “A”, the Color [7, 12] was “A” and the Color [7, 13] was “A”. For the same compound, the Color [7, 14] was “A”, the Color [7, 15] was “A” and the “Form obtained in water activity study (XRPD)” value (shortened to “Form obtained”) ([8]; AW4 EtOH/water = 0.4/0.6 (v/v) aw = 0.91, 25° C. (4 days)) was “Form F (protected by kapton film)”. The “Form obtained” value ([8]; AW5 EtOH/water = 0.3/0.7 (v/v) aw = 0.93, 25° C. (4 days)) was “Form F (protected by kapton film)”, the “Form obtained” value ([8]; AW6 EtOH/water = 0.2/0.8 (v/v) aw = 0.95, 25° C. (4 days)) was “Form F (protected by kapton film)^a” and the “Form obtained” value ([8]; AW7 EtOH/water = 0.1/0.9 (v/v) aw = 0.97, 25° C. (4 days)) was “Form E (protected by kapton film)”. For the same compound, the “Form obtained” value ([8]; AW8 MeOH aw = 0.0, 25° C. (4 days)) was “Form C (protected by kapton film)”, the “Form obtained” value ([8]; AW9 MeOH/water = 0.970/0.030 (v/v) aw = 0.1, 25° C. (4 days)) was “Form F (protected by kapton film)” and the “Form obtained” value ([8]; AW10 MeOH/water = 0.930/0.070 (v/v) aw = 0.2, 25° C. (4 days)) was “Form F (protected by kapton film)”. The “Form obtained” value ([8]; AW11 MeOH/water = 0.893/0.107 (v/v) aw = 0.3, 25° C. (4 days)) was “Form F (protected by kapton film)”, the “Form obtained” value ([8]; AW12 MeOH/water = 0.775/0.225 (v/v) aw = 0.5, 25° C. (4 days)) was “Form F (protected by kapton film)” and the “Form obtained” value ([8]; AW13 MeOH/water = 0.580/0.420 (v/v) aw = 0.7, 25° C. (4 days)) was “Form F (protected by kapton film)”. The “Form obtained” value ([8]; AW14 MeOH/water = 0.4/0.6 (v/v) aw = 0.81, 25° C. (4 days)) was “Form E (protected by kapton film)”, the “Form obtained” value ([8]; AW15 MeOH/water = 0.3/0.7 (v/v) aw = 0.86, 25° C. (4 days)) was “Form E (protected by kapton film)” and the “Form obtained” value ([8]; AW16 MeOH/water = 0.2/0.8 (v/v) aw = 0.91, 25° C. (4 days)) was “Form E (protected by kapton film)”. The “Form obtained” value ([8]; AW17 MeOH/water = 0.1/0.9 (v/v) aw = 0.96, 25° C. (4 days)) was “Form E (protected by kapton film)”, the “Form obtained” value ([8]; AW18 Water aw = 1.0, 25° C. (4 days)) was “Form E (protected by kapton film)^b” and the solubility at 24 h ([9]; 0.1 N HCl, pH 1.2, simulated gastric fluid, pH 1.2 (0.1N HCl)) was 150 µg/mL (≈ 440 µM). For the same compound, the “final pH” value ([9]; SGF, pH 2.0, 37° C.) was 2.3, the “final pH” value ([9]; pH 1.2 (0.1N HCl), 37° C.) was 1.3 and the “XRPD of solid after solubility test” value [9, 16] was “Solid state Form V”. The “final pH” value [9, 16] was 8.0, the “impurity in solubility sample” value [9, 16] was “no impurity” and the solubility at 24 h ([9]; phosphate buffer, pH 8, aqueous buffer, pH 8 (phosphate buffer)) was 40 µg/mL (≈ 117 µM). The solubility at 24 h ([9]; simulated gastric fluid (SGF), pH 2, simulated gastric fluid, SGF, pH 2.0, 37° C.) was 70 µg/mL (≈ 205 µM).
